According to ChEMBL document CHEMBL5465560, “Selectivity Literature for EUbOPEN Chemogenomic Library” (2024):
Residue numbers refer to the chain shown, from its start.

Experiments:
Conditions in all cases: at 1 µM
[1] = tested on: T1, Receptor-type tyrosine-protein kinase FLT3 (Homo sapiens), P36888 [D835H]; test: (§1) Selectivity interaction (KinomeScan (DiscoverX)) EUB0001079a FLT3
T1 sequence (whole entry): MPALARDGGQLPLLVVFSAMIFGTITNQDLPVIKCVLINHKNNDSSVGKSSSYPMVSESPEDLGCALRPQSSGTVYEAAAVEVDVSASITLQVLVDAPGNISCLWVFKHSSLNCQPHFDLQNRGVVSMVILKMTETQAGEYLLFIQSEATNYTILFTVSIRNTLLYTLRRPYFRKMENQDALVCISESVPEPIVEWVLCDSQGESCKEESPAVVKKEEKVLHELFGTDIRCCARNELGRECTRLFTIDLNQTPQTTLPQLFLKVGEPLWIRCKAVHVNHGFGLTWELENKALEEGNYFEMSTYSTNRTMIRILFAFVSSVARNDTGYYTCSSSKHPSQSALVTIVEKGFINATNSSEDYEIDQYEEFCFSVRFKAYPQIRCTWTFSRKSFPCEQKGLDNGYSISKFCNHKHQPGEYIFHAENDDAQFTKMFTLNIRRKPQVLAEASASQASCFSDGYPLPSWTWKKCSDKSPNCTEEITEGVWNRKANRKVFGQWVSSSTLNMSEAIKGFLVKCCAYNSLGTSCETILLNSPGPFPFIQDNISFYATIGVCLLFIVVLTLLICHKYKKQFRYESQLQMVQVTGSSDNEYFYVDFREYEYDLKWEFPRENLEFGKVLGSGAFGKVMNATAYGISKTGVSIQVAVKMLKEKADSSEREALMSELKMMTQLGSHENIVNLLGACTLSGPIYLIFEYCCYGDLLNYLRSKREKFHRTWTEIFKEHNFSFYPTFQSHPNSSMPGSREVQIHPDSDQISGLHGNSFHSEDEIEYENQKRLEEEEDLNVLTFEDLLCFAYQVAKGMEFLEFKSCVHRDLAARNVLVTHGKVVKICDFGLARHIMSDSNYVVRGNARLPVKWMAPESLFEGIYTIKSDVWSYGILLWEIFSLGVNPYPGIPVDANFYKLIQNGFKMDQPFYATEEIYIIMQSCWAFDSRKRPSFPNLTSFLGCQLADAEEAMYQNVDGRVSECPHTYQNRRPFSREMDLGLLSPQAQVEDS

[2] = tested on: T2, Receptor-type tyrosine-protein kinase FLT3 (Homo sapiens), P36888 [N841I]; test: as §1
T2 sequence (whole entry): T1 sequence (whole entry) with H835D, N841I

[3] = tested on: T3, Receptor-type tyrosine-protein kinase FLT3 (Homo sapiens), P36888 [D835V]; test: as §1
T3 sequence (whole entry): T1 sequence (whole entry) with H835V

Structure (SMILES): Nc1cnc(N2CCc3cc(S(=O)(=O)Nc4c(F)cc(Cl)cc4F)cc(N4CCCC4=O)c32)nc1 [TP-020n]
- % of control [1]: 100%
- % of control [2]: 89%
- % of control [3]: 100%
